EP1022029A1, “NOOTROPIC AGENT” (priority 1997, dated 1999)

Assays:
α4β2 receptor = target: T1, α4β2 receptor (Rattus norvegicus, UniProt P09483+P12390); assay: ACh-evoked currents in α4β2 receptors expressed in Xenopus oocytes (two-electrode voltage clamp); assay type: cell-based; conditions: for normalized response (%): nef(-), n=5; for % of the original amplitude (Ach-evoked current): treatment as labelled, nefiracetam 1 µM, GF109203X 100 nM, peptides co-expressed, Mean ± SD, n = 6 to 8
T1 construct: expressed in transfected cells; host or cells: Xenopus oocytes injected with in vitro transcribed mRNA
Procedure: Two-electrode voltage-clamp technique was used to record expression α4β2 or α7 receptors in oocytes. ACh (100 µM) was applied to a single oocyte in the presence or absence of α-BuTX (50 nM) or MCA (3 µM). The holding voltage was -30 or -60 mV for α4β2-nAChR or α7-nAChR, respectively. Downward directions correspond to inward currents.
(§1) mRNAs for the rat α4β2 receptor and α7 receptor, GLUR1, 2, 3 receptors, and NP152 and NP153 were constructed as described previously. Xenopus oocytes were manually separated from the ovary, and subjected to treatment with collagenase (0.5 mg/ml). Thereafter, the treated oocytes were incubated overnight in Barth's solution (in mM, 88 NaCl, 1 KCl, 2.4 NaHCO3, 0.82 MgSO4, 0.33 […], 0.41 CaCl2, and 7.5 Tris; pH 7.6). The oocytes were injected with the α4β2 or α7 receptor mRNA and incubated at 18°C. In some cases, NP152 and NP153 were co-expressed with the α4β2 and α7 receptors. The injected oocytes were incubated and transferred to a recording chamber 2-7 days after incubation and continuously superfused at room temperature (20-22°C) with a standard frog Ringer's solution [in mM: 115 NaCl, 2 KCl, 1.8 CaCl2, 5 HEPES; pH 7.0]. To remove the effect of endogenous muscarinic ACh receptor, 1 µM atropine was added to the extracellular solution. ACh-evoked currents were recorded by use of two-electrode voltage clamp techniques and an amplifier (GeneClamp-500, Axon Instrument, Inc. USA). The currents were analyzed on a microcomputer by pClamp software (Axon Instrument, Inc.; Version 6). From the results, an assessment was made as to whether nefiracetam actually acts on the nACh receptors.

α7 receptor = target: T2, α7 receptor (Rattus norvegicus, UniProt Q05941); assay: ACh-evoked currents in α7 receptors expressed in Xenopus oocytes (two-electrode voltage clamp); assay type: cell-based; conditions: for normalized response (%): nef(-), n=5; for % of the original amplitude (Ach-evoked current): treatment as labelled, nefiracetam 1 µM, GF109203X 100 nM, peptides co-expressed, Mean ± SD, n = 6 to 8
T2 construct: expressed in transfected cells; host or cells: Xenopus oocytes injected with in vitro transcribed mRNA
Procedure: Two-electrode voltage-clamp technique was used to record expression α4β2 or α7 receptors in oocytes. […] The holding voltage was -30 or -60 mV for α4β2-nAChR or α7-nAChR, respectively. Downward directions correspond to inward currents.
as §1

[1] = system: postsynaptic potentials evoked from the hippocampal CA1 region; assay: Postsynaptic potentials recorded in the CA1 pyramidal cell layer of rat hippocampal slices; assay type: cell-based; conditions: Rattus norvegicus, APV 100 µM alone, -10 to -1 min before nefiracetam; Time (min) in c0; n=5; read-out: Postsynaptic potential (% of original amplitude)
[2] = system: glutamate release from hippocampal slices; assay type: cell-based, guinea pig; conditions: St (ES+) electrical stimulation; nefiracetam 1 µM, tetrodotoxin 0.5 µM, α-bungarotoxin 50 nM, mecamylamine 3 µM

T2 sequence (Q05941 23-502): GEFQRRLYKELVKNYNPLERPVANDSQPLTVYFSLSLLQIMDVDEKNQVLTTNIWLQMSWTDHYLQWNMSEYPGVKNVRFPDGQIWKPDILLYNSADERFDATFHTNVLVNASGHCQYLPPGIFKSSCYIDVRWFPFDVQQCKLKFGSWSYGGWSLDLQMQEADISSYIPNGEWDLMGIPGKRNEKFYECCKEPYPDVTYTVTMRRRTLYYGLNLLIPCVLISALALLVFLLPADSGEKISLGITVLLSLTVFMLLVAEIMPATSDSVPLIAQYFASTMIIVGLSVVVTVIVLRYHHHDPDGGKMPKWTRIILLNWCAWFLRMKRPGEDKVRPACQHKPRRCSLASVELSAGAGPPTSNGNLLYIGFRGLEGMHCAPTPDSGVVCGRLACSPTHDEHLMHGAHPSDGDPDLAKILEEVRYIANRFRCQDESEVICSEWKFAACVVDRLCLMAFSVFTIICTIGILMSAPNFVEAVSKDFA
T1 sequence (P09483 31-630): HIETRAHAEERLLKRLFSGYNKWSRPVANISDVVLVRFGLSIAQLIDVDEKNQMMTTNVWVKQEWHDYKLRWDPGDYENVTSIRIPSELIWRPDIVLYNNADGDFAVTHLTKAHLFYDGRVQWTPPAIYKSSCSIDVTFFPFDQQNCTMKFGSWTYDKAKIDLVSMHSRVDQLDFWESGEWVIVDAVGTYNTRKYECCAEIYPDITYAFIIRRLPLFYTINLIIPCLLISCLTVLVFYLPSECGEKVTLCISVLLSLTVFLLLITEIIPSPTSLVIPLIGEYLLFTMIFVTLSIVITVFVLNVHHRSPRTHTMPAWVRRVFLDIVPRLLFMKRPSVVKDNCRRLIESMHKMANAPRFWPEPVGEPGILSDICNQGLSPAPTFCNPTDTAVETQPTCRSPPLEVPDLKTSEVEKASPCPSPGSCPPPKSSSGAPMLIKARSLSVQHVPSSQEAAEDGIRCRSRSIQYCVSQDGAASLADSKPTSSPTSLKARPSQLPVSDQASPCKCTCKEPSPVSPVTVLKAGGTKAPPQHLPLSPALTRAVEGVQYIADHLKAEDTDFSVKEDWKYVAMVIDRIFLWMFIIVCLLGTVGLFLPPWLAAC
T1 sequence (P12390 25-500): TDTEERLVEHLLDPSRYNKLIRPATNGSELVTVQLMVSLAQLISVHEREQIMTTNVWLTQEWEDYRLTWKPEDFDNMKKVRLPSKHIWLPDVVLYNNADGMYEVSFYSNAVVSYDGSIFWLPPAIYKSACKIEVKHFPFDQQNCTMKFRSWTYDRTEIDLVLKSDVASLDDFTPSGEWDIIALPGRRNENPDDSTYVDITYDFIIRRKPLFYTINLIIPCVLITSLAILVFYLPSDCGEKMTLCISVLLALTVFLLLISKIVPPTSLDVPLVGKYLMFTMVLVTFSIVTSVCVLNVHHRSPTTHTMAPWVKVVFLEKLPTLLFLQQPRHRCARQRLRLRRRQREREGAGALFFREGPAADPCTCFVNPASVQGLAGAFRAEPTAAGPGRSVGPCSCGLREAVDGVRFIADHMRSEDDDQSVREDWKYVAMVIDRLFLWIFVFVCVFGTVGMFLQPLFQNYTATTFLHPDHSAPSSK

CC(=O)OCC[N+](C)(C)C [ACh, reference compound]
normalized response (%) (α4β2 receptor; ACh 0.1 µM): 0% | normalized response (%) (α4β2 receptor; ACh 1 µM): 3% | normalized response (%) (α4β2 receptor; ACh 10 µM): 43% | normalized response (%) (α4β2 receptor; ACh 100 µM): 75% | normalized response (%) (α4β2 receptor; ACh 1000 µM): 100% | normalized response (%) (α7 receptor; ACh 0.1 µM): 0% | normalized response (%) (α7 receptor; ACh 1 µM): 0.5% | normalized response (%) (α7 receptor; ACh 10 µM): 1% | normalized response (%) (α7 receptor; ACh 100 µM): 28% | normalized response (%) (α7 receptor; ACh 1000 µM): 100%

N[C@H](CCCP(=O)(O)O)C(=O)O [APV, D-2-amino-5-phosphonovaleric acid, reference compound]
activity at 100 µM [1]: 87 ± 7%

Nc1nc2c(ncn2[C@@H]2O[C@H](COP(=O)(O)OP(O)(O)=S)[C@@H](O)[C@H]2O)c(=O)[nH]1 [GDPβS, reference compound]
% of the original amplitude (Ach-evoked current) (α4β2 receptor): 96 ± 10% | % of the original amplitude (Ach-evoked current) (α7 receptor): 100 ± 11%

CN(C)CCCn1cc(C2=C(c3c[nH]c4ccccc34)C(=O)NC2=O)c2ccccc21 [GF109203X, reference compound]
% of the original amplitude (Ach-evoked current) (α4β2 receptor): 79.3 ± 15% | % of the original amplitude (Ach-evoked current) (α7 receptor): 102.2 ± 9.6%

O=S(=O)(NCCNCC=Cc1ccc(Br)cc1)c1cccc2cnccc12 [H89, N-[2-(p-Bromocinnamylamino)ethyl]-5-isoquinolinesulfonamide · 2HCl, reference compound]
% of the original amplitude (Ach-evoked current) (α4β2 receptor): 98.8 ± 12% | % of the original amplitude (Ach-evoked current) (α7 receptor): 99.4 ± 5.8%

CN[C@@H]1C[C@H]2O[C@@](C)([C@@H]1OC)n1c3ccccc3c3c4c(c5c6ccccc6n2c5c31)C(=O)NC4 [Staurosporine, reference compound]
% of the original amplitude (Ach-evoked current) (α4β2 receptor): 90 ± 8% | % of the original amplitude (Ach-evoked current) (α7 receptor): 101 ± 8%

CNC1(C)C2CCC(C2)C1(C)C (stereo not drawn) [mecamylamine, reference compound]
effect on ACh-evoked current (Fig. 3) (α4β2 receptor; MCA 3 µM, ACh 100 µM, holding voltage -30 mV): strongly inhibit | Amount of released glutamate [2]: 2.45 ± 0.3 (c) nmol/mg protein/10min.
